Measurements published in patent publication US20220396577A1, “NOVEL SUBSTITUTED 1,3-8-TRIAZASPIRO[4,5] DECANE-2,4-DIONE COMPOUNDS AS INDOLEAMINE 2,3-DIOXYGENASE (IDO) AND/OR TRYPTOPHAN 2,3-DIOXYGENASE (TDO) INHIBITORS” (Merck Sharp & Dohme LLC, priority 2019, published 2022).

Tests used:
CDK9 (Cyclin T1) = CDK9 (Cyclin T1) (Homo sapiens, UniProt P50750); test: Off-target kinase panel, ADAPTA: CDK9 (Cyclin T1); assay type: biochemical; conditions: read-out: Estimated IC50 (uM) CDK9 (Cyclin T1)
Text: (§1) The activity data was obtained in a panel of 265 and 264 for compounds 1-1 and CC-1, respectively, using the ZLYTE and ADAPTA assay methods indicated in the table below.
(§2) The Adapta universal kinase assay is a homogenous, fluorescent based immunoassay for the detection of ADP. In contrast to ATP depletion assays, the Adapta assay is highly sensitive to ADP formation such that a majority of the signal change occurs in the first 10-20% conversion of ATP to ADP. This makes the Adapta universal kinase assay well suited for use with low activity kinases.
(§3) The principle of the Adapta universal kinase assay is outlined below. The assay itself can be divided into two phases: a kinase reaction phase, and an ADP detection phase. In the kinase reaction phase, all components required for the kinase reaction are added to the well, and the reaction is allowed to incubate for 60 minutes. After the reaction, a detection solution consisting of a europium labeled anti-ADP antibody, an Alexa Fluor 647 labeled ADP tracer, and EDTA (to stop the kinase reaction) is added to the assay well. […]
(§4) ADP formation is determined by calculating the emission ratio from the assay well. The emission ratio is calculated by dividing the intensity of the tracer (acceptor) emission by the intensity of the Eu (donor) emission at 615 nm as shown in the equation below. […]
(§5) 12. Read on fluorescence plate reader and analyze the data.

IDO1 = IDO1 (Homo sapiens, UniProt P14902); test: IDO1 Cellular Assay in HeLa Cells Stimulated with IFNγ (B); assay type: cell-based; set-up: endogenous in cells; host or cells: HeLa cells stimulated with IFNγ; conditions: about 48 h, first value of cell, read-out: IDO hela (B) cell IC50
IDO1, sequence (P14902 whole entry): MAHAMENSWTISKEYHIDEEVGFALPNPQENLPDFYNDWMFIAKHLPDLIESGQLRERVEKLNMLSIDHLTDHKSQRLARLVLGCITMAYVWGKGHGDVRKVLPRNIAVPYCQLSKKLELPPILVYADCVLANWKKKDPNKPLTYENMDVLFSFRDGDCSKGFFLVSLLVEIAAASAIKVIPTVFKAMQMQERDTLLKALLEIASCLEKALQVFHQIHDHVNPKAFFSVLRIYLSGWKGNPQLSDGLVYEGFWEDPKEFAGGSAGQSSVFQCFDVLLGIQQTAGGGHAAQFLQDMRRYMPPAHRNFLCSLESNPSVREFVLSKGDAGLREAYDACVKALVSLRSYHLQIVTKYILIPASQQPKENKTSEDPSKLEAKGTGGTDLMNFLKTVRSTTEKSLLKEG
Experimental: HeLa cells were cultured in complete HeLa culture medium (90% EMEM, 10% heat-inactivated fetal bovine serum) and expanded to about 1×10^9 cells. The cells were then collected and frozen down at 1×10^7 cells/vial in 1 mL frozen medium (90% complete HeLa culture medium, 10% DMSO).
Compounds to be tested were serially diluted in ten 3-fold steps in DMSO starting from 10 mM DMSO stocks in Echo low volume plate(s). Compound dilutions or DMSO alone were then dispensed from the dilution plate(s) into Greiner black 384-well assay plate(s) (catalog #781086, 50 nL/well) using an Echo 550 acoustic liquid handler (Labcyte).
Frozen HeLa cells were thawed and transferred into HeLa assay medium (99% complete HeLa culture medium, 1% Pen/Strep) with 20 mL medium/vial of cells. […] The cells were then counted and adjusted to a density of 2×10^5 cells/mL in HeLa assay medium. […]
HeLa cells with and without IFNγ were dispensed to the respective wells of 384-well assay plates containing the compounds. […] The resulting fluorescence was measured in a Spectramax plate reader (Molecular Devices) with a 400 nm excitation filter and a 510 nm emission filter.
The fluorescence intensity of each well was corrected for the background observed in wells with non-IFNγ-treated cells and was expressed as a fraction of the intensity observed in wells of IFNγ-treated cells and DMSO only. […]

LRRK2 (G2019S) = LRRK2 (G2019S) (Homo sapiens, UniProt Q5S007, G2019S); test: Off-target kinase panel, ADAPTA: LRRK2 (G2019S); assay type: biochemical; conditions: read-out: Estimated IC50 (uM) LRRK2 (G2019S)
LRRK2 (G2019S), sequence (Q5S007 whole entry G2019S): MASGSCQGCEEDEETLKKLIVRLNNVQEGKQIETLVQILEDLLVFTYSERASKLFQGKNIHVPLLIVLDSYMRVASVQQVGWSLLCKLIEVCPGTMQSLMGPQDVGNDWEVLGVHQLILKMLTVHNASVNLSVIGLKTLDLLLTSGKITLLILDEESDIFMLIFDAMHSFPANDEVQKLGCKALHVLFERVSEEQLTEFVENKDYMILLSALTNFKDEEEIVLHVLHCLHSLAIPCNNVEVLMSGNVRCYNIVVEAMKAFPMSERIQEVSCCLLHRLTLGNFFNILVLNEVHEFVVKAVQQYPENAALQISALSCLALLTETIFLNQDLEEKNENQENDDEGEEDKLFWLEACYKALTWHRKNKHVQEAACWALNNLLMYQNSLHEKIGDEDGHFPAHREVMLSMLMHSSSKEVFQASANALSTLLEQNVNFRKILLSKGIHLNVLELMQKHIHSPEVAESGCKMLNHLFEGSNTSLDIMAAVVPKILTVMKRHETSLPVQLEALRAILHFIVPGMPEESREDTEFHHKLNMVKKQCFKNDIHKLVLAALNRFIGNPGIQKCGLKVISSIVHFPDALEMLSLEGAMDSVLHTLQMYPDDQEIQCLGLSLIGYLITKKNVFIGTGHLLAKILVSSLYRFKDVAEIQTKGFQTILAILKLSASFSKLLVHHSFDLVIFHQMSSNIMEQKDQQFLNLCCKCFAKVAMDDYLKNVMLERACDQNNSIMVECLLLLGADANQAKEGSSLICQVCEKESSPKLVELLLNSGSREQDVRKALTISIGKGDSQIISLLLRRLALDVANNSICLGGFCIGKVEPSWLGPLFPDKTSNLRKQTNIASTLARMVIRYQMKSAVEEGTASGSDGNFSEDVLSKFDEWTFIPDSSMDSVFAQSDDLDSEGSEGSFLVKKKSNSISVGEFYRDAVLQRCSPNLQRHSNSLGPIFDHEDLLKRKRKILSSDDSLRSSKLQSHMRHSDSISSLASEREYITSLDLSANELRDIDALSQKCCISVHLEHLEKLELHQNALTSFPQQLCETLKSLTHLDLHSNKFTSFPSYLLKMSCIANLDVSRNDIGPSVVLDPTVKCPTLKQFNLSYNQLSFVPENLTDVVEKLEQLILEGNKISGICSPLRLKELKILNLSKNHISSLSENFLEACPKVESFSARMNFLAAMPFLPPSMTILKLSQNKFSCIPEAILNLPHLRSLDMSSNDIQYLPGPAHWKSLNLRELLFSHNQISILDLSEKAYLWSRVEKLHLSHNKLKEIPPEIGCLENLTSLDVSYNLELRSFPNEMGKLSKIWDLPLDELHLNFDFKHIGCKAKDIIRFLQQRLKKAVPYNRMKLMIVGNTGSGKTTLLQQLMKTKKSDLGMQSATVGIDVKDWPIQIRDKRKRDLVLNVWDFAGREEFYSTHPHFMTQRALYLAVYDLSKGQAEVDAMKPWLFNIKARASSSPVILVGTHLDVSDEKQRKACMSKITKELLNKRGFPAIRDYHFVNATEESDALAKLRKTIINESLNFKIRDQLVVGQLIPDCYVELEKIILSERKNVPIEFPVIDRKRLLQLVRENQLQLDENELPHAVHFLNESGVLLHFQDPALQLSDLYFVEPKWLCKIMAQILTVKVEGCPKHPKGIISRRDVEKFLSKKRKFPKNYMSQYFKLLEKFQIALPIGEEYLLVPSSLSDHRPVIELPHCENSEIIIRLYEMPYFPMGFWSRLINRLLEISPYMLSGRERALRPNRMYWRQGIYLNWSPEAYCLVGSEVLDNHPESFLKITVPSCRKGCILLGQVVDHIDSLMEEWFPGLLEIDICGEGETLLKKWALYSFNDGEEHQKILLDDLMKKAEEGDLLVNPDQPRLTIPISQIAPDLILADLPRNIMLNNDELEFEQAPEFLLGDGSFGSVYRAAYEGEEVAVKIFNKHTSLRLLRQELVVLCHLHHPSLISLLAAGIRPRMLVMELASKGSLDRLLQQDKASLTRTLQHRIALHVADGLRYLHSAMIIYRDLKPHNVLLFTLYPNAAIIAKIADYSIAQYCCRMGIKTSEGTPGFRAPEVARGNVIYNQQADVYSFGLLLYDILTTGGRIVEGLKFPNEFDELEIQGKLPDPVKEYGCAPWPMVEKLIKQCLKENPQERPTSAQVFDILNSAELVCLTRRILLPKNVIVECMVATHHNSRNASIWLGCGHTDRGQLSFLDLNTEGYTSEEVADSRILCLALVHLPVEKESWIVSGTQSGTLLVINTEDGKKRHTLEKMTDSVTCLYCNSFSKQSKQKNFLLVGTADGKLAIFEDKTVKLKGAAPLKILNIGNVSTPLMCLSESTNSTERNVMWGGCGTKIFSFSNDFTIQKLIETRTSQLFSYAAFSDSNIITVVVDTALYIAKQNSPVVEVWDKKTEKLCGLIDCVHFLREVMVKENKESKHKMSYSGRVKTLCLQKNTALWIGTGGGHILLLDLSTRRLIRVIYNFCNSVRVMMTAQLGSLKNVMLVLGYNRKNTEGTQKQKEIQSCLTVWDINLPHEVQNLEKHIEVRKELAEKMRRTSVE
Text: as §1, §2, §3, §4, §5

CDK9 (Cyclin T1), sequence (P50750 whole entry): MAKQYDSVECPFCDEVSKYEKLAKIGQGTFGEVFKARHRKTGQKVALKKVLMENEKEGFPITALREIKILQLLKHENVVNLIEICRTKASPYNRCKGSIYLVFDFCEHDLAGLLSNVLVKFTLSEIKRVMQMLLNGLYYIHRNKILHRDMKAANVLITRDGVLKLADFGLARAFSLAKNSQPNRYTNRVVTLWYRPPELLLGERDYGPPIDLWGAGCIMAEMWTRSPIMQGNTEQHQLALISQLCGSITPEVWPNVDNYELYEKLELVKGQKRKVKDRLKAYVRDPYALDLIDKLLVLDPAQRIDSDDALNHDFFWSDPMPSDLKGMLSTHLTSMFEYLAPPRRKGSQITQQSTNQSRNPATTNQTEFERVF
CDK9 (Cyclin T1), sequence (O60563 whole entry partner): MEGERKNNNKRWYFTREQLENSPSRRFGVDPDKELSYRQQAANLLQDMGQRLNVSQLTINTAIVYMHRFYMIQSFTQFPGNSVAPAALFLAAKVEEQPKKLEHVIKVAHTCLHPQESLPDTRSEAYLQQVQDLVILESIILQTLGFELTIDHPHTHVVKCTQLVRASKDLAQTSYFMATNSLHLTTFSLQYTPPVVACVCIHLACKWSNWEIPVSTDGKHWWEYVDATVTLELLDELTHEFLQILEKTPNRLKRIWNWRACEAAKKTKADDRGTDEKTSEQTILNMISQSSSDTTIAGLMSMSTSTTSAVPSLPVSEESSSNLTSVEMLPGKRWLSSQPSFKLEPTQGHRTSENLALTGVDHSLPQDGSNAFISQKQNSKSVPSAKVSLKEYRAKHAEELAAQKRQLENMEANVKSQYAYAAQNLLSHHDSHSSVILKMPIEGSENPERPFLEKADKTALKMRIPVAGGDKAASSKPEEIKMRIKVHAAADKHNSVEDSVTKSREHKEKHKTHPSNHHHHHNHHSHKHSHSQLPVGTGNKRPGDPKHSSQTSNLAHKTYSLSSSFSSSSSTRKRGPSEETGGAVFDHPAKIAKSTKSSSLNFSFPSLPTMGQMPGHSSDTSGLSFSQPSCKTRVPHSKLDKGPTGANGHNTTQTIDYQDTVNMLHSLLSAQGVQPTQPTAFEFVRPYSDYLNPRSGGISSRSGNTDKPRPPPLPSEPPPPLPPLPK

| IC50 (CDK9 (Cyclin T1)) | IC50 (IDO1) | IC50 (LRRK2 (G2019S)) | Compound |
| --- | --- | --- | --- |
| > 2 µM | 77 nM | > 2 µM | C[C@@H]1CN(c2cc(Br)cc3[nH]ncc23)CC[C@]12NC(=O)NC2=O (single isomer, unassigned) [Compound 1-1] |
| 0.15 µM | 97 nM | 0.94 µM | O=C1NC(=O)C2(CCN(c3cc(Cl)cc4[nH]ncc34)CC2)N1 [CC-1] |
